Values of other authors, collected in patent US20040248846A1, “Intranasal administration of triptans” (Nastech Pharmaceutical Company Inc., priority 2003, published 2004).
Like-named read-outs stand apart in the source and are kept apart here.

Assays:
[1] = system: patients with migraine
[2] = single 6 mg subcutaneous dose, 18 healthy males

CNS(=O)(=O)Cc1ccc2[nH]cc(CCN(C)C)c2c1 [sumatriptan]
mean Cmax (5 mg intranasal dose, 20 females): 5 ng/mL
mean Cmax (20 mg intranasal dose, 20 females): 16 ng/mL
mean Cmax (oral dosing with 25 mg): approximately 18 ng/ml
tmax (oral dosing with 25 mg): approximately 2 hours
mean Cmax [2]: 74 ± 15 ng/mL
median tmax [2]: 12 min
efficacy (effective) ([1]; 6 mg subcutaneous dose): ~85%
Onset of pain relief ([1]; after a nasal dose): 30 min
Onset of pain relief ([1]; after a subcutaneous dose): 10 to 34 min
